What was measured:
[1] = tested on: α-fodrin; experiment: Western blot of α-fodrin cleavage products in cortex after CCI induced TBI; format: in vivo, mice; settings: NALL fed vs vehicle fed mouse cortices after TBI; oral gavage 10 mg/kg daily 4 days plus chow
Experimental: Controlled cortical impact (CCI) induced TBI was performed in male C57BL6/J mice (20-25 g). Briefly, after a 10-mm midline incision was made over the skull, the skin and fascia were retracted, and a 4-mm craniotomy was made on the central aspect of the left parietal bone of mice under surgical anesthesia (2-3% isoflurane evaporated in a gas mixture containing 70% N20 and 30% 02). Moderate injury was induced in the exposed brain by a custom microprocessor-controlled and compressed air driven pneumatic impactor of 3.5 mm diameter tip with the impact velocity of 6 m/s and a deformation depth of 2 mm. […]
The level of α-fodrin cleavage products in NALL treated, vehicle treated sham, and TBI mouse cortices were determined by Western blot analysis and using the TUNEL assay to assess whether NALL treatment decreases cortical cell death after TBI.
(§1) Around 5 mm tissue of ipsilateral cortex around the site of injury from TBI mice or the corresponding tissue of same volume around the same cortical region from sham mice were dissected and processed. […] Protein bands were detected using chemiluminiscence kit (Pierce, 34076) and visualized using Chemi-doc system (Bio-Rad). Band intensity was analyzed using Image Lab software (Bio-Rad) and normalized to loading control (β-Actin). […]

[2] = tested on: LC3-II and p62/SQSTM1; experiment: Western blot of autophagy flux markers in cortex after CCI induced TBI; format: in vivo, mice
Experimental: Controlled cortical impact (CCI) induced TBI was performed in male C57BL6/J mice (20-25 g). Briefly, after a 10-mm midline incision was made over the skull, the skin and fascia were retracted, and a 4-mm craniotomy was made on the central aspect of the left parietal bone of mice under surgical anesthesia (2-3% isoflurane evaporated in a gas mixture containing 70% N20 and 30% 02). Moderate injury was induced in the exposed brain by a custom microprocessor-controlled and compressed air driven pneumatic impactor of 3.5 mm diameter tip with the impact velocity of 6 m/s and a deformation depth of 2 mm.
N-Acetyl-L-Leucine (“NAL” or “NALL”) was dissolved in ethanol to prepare a 50 mg/ml solution which was then diluted in water to give a 10 mg/ml solution. About 0.25 ml of the NAL solution (10 mg/ml) was orally administered in mice at a […] (2.5 mg NAL/25 g mouse) via oral gavage each day after CCI induced TBI for 4 days. Mice were also fed with NAL at 0.5 mg/kg chow powder chow mixed with diet gel for up to 7 days after injury.
as §1
Autophagy is a lysosome dependent cellular degradation process that is disrupted due to lysosomal damage after TBI. […] Whether attenuation of cell death following NALL treatment in TBI mice is mediated through the restoration of autophagy flux was assessed.
The levels of LC3-II and p62/SQSTM1 in the cortical tissue lysates prepared from vehicle and NAL fed naïve and TBI mice were determined by western blot analysis. A decrease in the levels of LC3-II in the brain of NALL fed mice as compared to vehicle treated mice at day 1 after TBI was detected. […]

[3] = tested on: rat primary cortical neurons (NE and NG cultures); experiment: Truncated tau and neuronal markers in neuron-enriched and neuron-glia cultures; format: cell-based
Experimental: FIG. 20 is eight Western blots of tau (5E2), synaptophysin and βIII-tubulin in rat primary cortical neurons (neuron-enriched (NE) and neuron-glia (NG) cultures) in the absence and presence of ADLL, ALL, ADL, DLL, LL, DL, and LLE (1 mM, 5 days).
The efficacy of ADLL, ALL, ADL, DLL, LL, DL, and LLE in reducing truncated tau levels in neuron-glia (NG) cultures was investigated. The results of this study are provided in FIGS. 20-24 One aim of this study was to determine whether ADLL, ALL, ADL, DLL, LL, DL, and LLE conferred intrinsic neuroprotection by sustaining neuronal function under conditions of cellular overgrowth, or whether they acted indirectly through the non-autonomous modulation of glial cells. Irrespective of whether the compounds acted directly or indirectly on neurons, preventing the generation of truncated tau confers beneficial effects to neuronal integrity.
Cultures were treated for five days (DIV 9-14) with 1 mM of ADLL, ALL, ADL, DLL, LL, DL, or LLE, and were subsequently assessed for a number of neuron-specific markers that could provide a readout on neuronal health: βIII-tubulin, full-length tau, truncated tau (antibody 5E2) and synaptophysin. ADLL, ALL, ADL, DLL, LL, DL, and LLE were well-tolerated in NE and NG cultures, as evidenced by consistently equal levels of synaptophysin and βIII-tubulin detected across untreated (control) and drug-treated samples (FIGS. 20, 23, and 24). None of ADLL, ALL, ADL, DLL, LL, DL, and LLE reduced basal levels of truncated tau in NG cultures at DIV14 (FIG. 20 and FIG. 22).

[4] = tested on: cerebellar Purkinje cells; experiment: Purkinje cell survival in Npc1−/− mice; format: in vivo; settings: 59 days of age, compared to Npc1−/− UT
Description: (§2) FIG. 46 is an image showing cerebellar Purkinje cell loss progressing from anterior to posterior lobes and microglial activation in untreated Npc1^−/− mice and Npc1^−/− mice treated with ADLL, ALL, and ADL. Cerebellums were stained with calbindin-b (Purkinje cells) or CD68 (activated microglia).
FIG. 47 is a scatter graph showing Purkinje cell survival at 59 days of age in untreated Npc1^−/− mice and Npc1^−/− mice treated with ADLL, ALL, and ADL.
(§3) The combination of increased survival of neurons and a less inflammatory environment in the brain could improve brain function, quality of life, and delay the progression of disease in human subjects.

[5] = tested on: CD68 positive activated microglia; experiment: CD68 positive activated microglia in cerebellum of Npc1−/− mice; format: in vivo; settings: 59 days of age, compared to Npc1−/− UT
Description: as §2
FIG. 48 is a scatter graph showing frequency of CD68 positive activated microglia at 59 days of age in untreated Npc1^−/− mice and Npc1^−/− mice treated with ADLL, ALL, and ADL. CD68 cell density was measured in the cerebellum. n=5 animals per group. Mean±SD, *** p<0.0009 (one-way ANOVA).
as §3

[6] = tested on: rat model of an acute unilateral labyrinthectomy; settings: activation of vestibulo-cerebellum, deactivation of posterolateral thalamus; cited from earlier work

Compound: CC(=O)N[C@@H](CC(C)C)C(=O)O [ALL, acetyl-L-leucine]
- level of 145-150 kDa fragments of α-fodrin [1]: lower level
- p62/SQSTM1 level in the cortex ([2]; NALL fed vs vehicle treated mice after TBI): decrease
- levels of LC3-II in the brain ([2]; NALL fed vs vehicle treated mice, day 1 after TBI): decrease
- autophagy flux ([2]; mouse cortices after TBI): improves autophagy flux
- tolerability (levels of synaptophysin and βIII-tubulin vs untreated control) ([3]; NE and NG cultures, 1 mM, five days (DIV 9-14)): well-tolerated
- reduction of basal levels of truncated tau ([3]; NG cultures at DIV14, 1 mM, five days): None
- Purkinje cell survival in any cerebellar lobules [4]: did not improve
- reduction of frequency of CD68 positive activated microglia [5]: 20%
- effect on postural compensation [6]: significant effect
